Like-named read-outs stand apart in the source and are kept apart here.
Tests used:
Format in all cases: in vivo
[1] = tested on: barnyardgrass (Echinochloa crus-qalli L.); assay: Foliar treatment pot test, visual growth inhibition rate, barnyardgrass (EC); settings: 4.0-5.0 leaf stage, read-out: Growth inhibition rate (%) of EC Measured value; for inhibition at 250 g/ha: 192 h, 8 DAT; for inhibition at 125 g/ha: 504 h, 21 DAT
From the text: (§1) When the herbicidal activity in a case where two active ingredients are combined, is larger than the simple sum of the respective herbicidal activities of the two active ingredients (the expected activity), it is called a synergistic effect. The activity expected by the combination of two active ingredients can be calculated as follows (Colby S. R., “Weed”, vol. 15, p. 20-22, 1967). E=α+β−(α×β÷100) where
(§2) Upland field soil was put into a 1/1,000,000 hectare pot, and seeds of various plants (barnyardgrass (Echinochloa crus-qalli L.), crabgrass (Digitaria sanguinalis L.), giant foxtail (Setaria faberi Herrm.), velvetleaf (Abutilon theophrasti MEDIC.) and prickly sida (Sida spinosa L.)) were sown. When the respective plants reached predetermined leaf stage, herbicidal compositions in predetermined amounts were diluted with water in an amount corresponding to 300 L/ha and applied for foliar treatment by a small sprayer.
(§3) Further, in accordance with the above Colby's formula, the growth inhibition rate (calculated value) was calculated. In Tables, with respect to the compound Q, Compound Nos. in Table 1 are described, and with respect to other herbicidal compounds, common names are described. Further, in Tables, barnyardgrass is represented by “EC”, crabgrass by “DS”, giant foxtail by “SF”, velvetleaf by “AT”, and prickly sida by “SS”.

[2] = tested on: crabgrass (Digitaria sanguinalis L.); assay: Foliar treatment pot test, visual growth inhibition rate, crabgrass (DS); settings: Digitaria sanguinalis, foliar, read-out: Growth inhibition rate (%) of DS Measured value; for inhibition at 175 g/ha: 504 h, 21 DAT; for inhibition at 375 g/ha: 528 h, 3.1-4.0 leaf stage, 22 DAT
Outline: (§4)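 Seeds were sown in upland soil pots, and plants were sprayed on the foliage at a predetermined leaf stage with herbicidal compositions diluted in water at 300 L/ha. Growth inhibition was rated visually. Expected combination activity was calculated by Colby's formula to assess synergy.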

[3] = tested on: velvetleaf (Abutilon theophrasti MEDIC.); assay: Foliar treatment pot test, visual growth inhibition rate, velvetleaf (AT); settings: Abutilon theophrasti, foliar, read-out: Growth inhibition rate (%) of AT Measured value; for inhibition at 300 g/ha: 3.1-3.4 leaf stage
Outline: as §4

[4] = tested on: prickly sida (Sida spinosa L.); assay: Foliar treatment pot test, visual growth inhibition rate, prickly sida (SS); settings: Sida spinosa, foliar, read-out: Growth inhibition rate (%) of SS Measured value; for inhibition at 63 g/ha / inhibition at 125 g/ha / inhibition at 250 g/ha: 504 h, 21 DAT
From the text: as §1, §2, §3

[5] = 336 h, 4.6-5.3 leaf stage, 14 DAT
[6] = 504 h, 3.0-3.8 leaf stage, 21 DAT
[7] = 504 h, 4.0-4.5 leaf stage, 21 DAT

Compound `CCNc1nc(Cl)nc(NC(C)C)n1` [Atrazine, atrazine] has an inhibition at 250 g/ha [1] of 10%, an inhibition at 125 g/ha [1] of 0% and an inhibition at 50 g/ha ([2]; 336 h, 4.0-4.5 leaf stage, 14 DAT, 50 g/ha) of 20%. It also gave an inhibition at 400 g/ha ([2]; 336 h, 4.0-4.5 leaf stage, 14 DAT, 400 g/ha) of 30%, an inhibition at 800 g/ha ([2]; 336 h, 4.0-4.5 leaf stage, 14 DAT, 800 g/ha) of 40% and an inhibition at 500 g/ha ([2]; 336 h, 5.0-6.0 leaf stage, 14 DAT, 500 g/ha) of 0%. For the same compound, the inhibition at 1000 g/ha ([2]; 336 h, 5.0-6.0 leaf stage, 14 DAT, 1000 g/ha) was 10%, the inhibition at 2000 g/ha ([2]; 336 h, 5.0-6.0 leaf stage, 14 DAT, 2000 g/ha) was 25% and the inhibition at 175 g/ha ([2]; 3.5-4.3 leaf stage) was 0%. It also gave an inhibition at 375 g/ha [2] of 0%, an inhibition at 500 g/ha [3, 5] of 45% and an inhibition at 1000 g/ha [3, 5] of 60%. For the same compound, the inhibition at 2000 g/ha [3, 5] was 70%, the inhibition at 50 g/ha ([3]; 480 h, 3.1-3.5 leaf stage, 20 DAT, 50 g/ha) was 30% and the inhibition at 100 g/ha ([3]; 480 h, 3.1-3.5 leaf stage, 20 DAT, 100 g/ha) was 30%. For the same compound, the inhibition at 200 g/ha ([3]; 480 h, 3.1-3.5 leaf stage, 20 DAT, 200 g/ha) was 35%, the inhibition at 400 g/ha ([3]; 480 h, 3.1-3.5 leaf stage, 20 DAT, 400 g/ha) was 40% and the inhibition at 600 g/ha ([3]; 480 h, 3.1-3.5 leaf stage, 20 DAT, 600 g/ha) was 80%. The inhibition at 800 g/ha ([3]; 480 h, 3.1-3.5 leaf stage, 20 DAT, 800 g/ha) was 100%, the inhibition at 175 g/ha [3, 6] was 0% and the inhibition at 375 g/ha ([3]; 528 h, 4.0-4.4 leaf stage, 22 DAT, 375 g/ha) was 25%. It also gave an inhibition at 63 g/ha ([4]; 3.0-3.3 leaf stage) of 30%, an inhibition at 125 g/ha ([4]; 3.0-3.3 leaf stage) of 45% and an inhibition at 250 g/ha ([4]; 3.0-3.3 leaf stage) of 65%.

`CCNc1nc(Cl)nc(NC(C)(C)C)n1` [Terbuthylazine, terbuthylazine] was tested, and the inhibition at 250 g/ha [1] was 10%, the inhibition at 125 g/ha [1] was 0% and the inhibition at 300 g/ha ([2]; 336 h, 3.5-4.3 leaf stage, 14 DAT, 300 g/ha) was 25%. For the same compound, the inhibition at 175 g/ha ([2]; 3.5-4.3 leaf stage) was 0%, the inhibition at 375 g/ha [2] was 0% and the inhibition at 300 g/ha ([3]; 480 h, 20 DAT) was 50%. For the same compound, the inhibition at 175 g/ha [3, 6] was 0%, the inhibition at 300 g/ha ([3]; 504 h, 21 DAT) was 50% and the inhibition at 500 g/ha [3, 7] was 30%. For the same compound, the inhibition at 1000 g/ha [3, 7] was 45%, the inhibition at 2000 g/ha [3, 7] was 55% and the inhibition at 175 g/ha ([3]; 528 h, 4.0-4.4 leaf stage, 22 DAT) was 15%. The inhibition at 100 g/ha ([4]; 480 h, 1.5-2.4 leaf stage, 20 DAT, 100 g/ha) was 55%, the inhibition at 63 g/ha ([4]; 3.0-4.0 leaf stage) was 0% and the inhibition at 125 g/ha ([4]; 3.0-4.0 leaf stage) was 0%. For the same compound, the inhibition at 250 g/ha ([4]; 3.0-4.0 leaf stage) was 20%.
